# Reference: patent US6232345A, “Cerebral function improving agents” (Shimizu Pharmaceutical Co., Ltd., priority 1995, dated 2001)
# “And” between values parts separate entries of the source, which are not always exact repeats. Identical values can stand only once. Like-named read-outs stand apart in the source and are kept apart here.
# How the values were obtained:
# [1] = Stability of test drug and prepared solutions; type: physicochemical
# [2] = test system: cerebral edema induced by ligation and severing of the bilateral common carotid arteries; test: Cerebral edema suppressing effect: cerebral water content after ligation and severing of the bilateral common carotid arteries (Examples 1-3); type: in vivo, male Wistar rats
# From the text: (§1) Rats were operated on under anesthesia which was introduced with ether and maintained by inhalation of a mixture of isoflurane/nitrous oxide/oxygen (0.5:70:30). A midline incision was made in the neck and the connective tissue was carefully dissected to avoid injury to the vagus nerve while exposing the bilateral common carotid arteries.
# For test drug administration, the right external jugular vein was cannulated and the other end of the cannula was led out through the back of the animal. Then the common carotid artery was ligated at two points (head side and heart side) and severed between the two ligatures. […]
# In sham-operated rats, the bilateral common carotid arteries were exposed in the same way and the skin incision was closed without arterial ligation and severing.
# On completion of administration, each rat was decapitated, and the whole brain was isolated immediately. After removal of the cerebellum and the medulla oblongata, the wet weight of the cerebrum was measured. […] The cerebral water content was calculated by using the following formula:
# Cerebral water content (%)=(wet weight of the cerebrum-dry weight of the cerebrum)/wet weight of the cerebrum×100. […]
# [3] = test system: bilateral common carotid artery ligation (BLCL); test: Cerebral metabolic activation: cerebral water and electrolyte content in rats with bilateral common carotid artery ligation (Example 5); type: in vivo, male Wistar rats; conditions: 25 mg/kg/hr i.v. infusion for 5 hours, n = 9, mean ± S.E.
# Protocol: Male Wistar rats purchased from Japan S.L.C., Ltd. were used after a 1-week acclimatization period. The animals were maintained at 23±2° C. and 55±10% humidity with lights on for 12 hours daily (from 7:00 to 19:00). They were fed a pellet diet (MF, Oriental Yeast Co., Ltd.) and tap water ad libitum. Their weight averaged 172.1±6.7 g at the time of the study.
# Sodium β-hydroxybutyrate (BHBNa).
# The dose of BHBNa tested was 25 mg/kg/hr. The test group was treated with a 20 mM BHBNa solution, while the control group received physiological saline. In both groups, administration was performed at a rate of 10 ml/kg/hr for 5 hours.
# Rats were operated on under anesthesia which was introduced with ether and maintained by inhalation of a mixture of isoflurane/nitrous oxide/oxygen (0.5:70:30). A midline incision was made in the neck. The connective tissue was dissected carefully to avoid injury to the vagus nerves while exposing the bilateral common carotid arteries. The right external jugular vein was cannulated and the other end of the cannula was led out through the back. Each of the exposed common carotid arteries was ligated at two points (head side and heart side) and severed between the two ligatures. The skin incision was sutured and each rat was immediately given the test drug or physiological saline by continuous intravenous infusion using an infusion pump at a rate of 10 ml/kg/hr for 5 hours. In sham-operated rats, the bilateral common carotid arteries were exposed in the same way and the skin incision was closed without arterial ligation and severing. After completion of administration, each animal was sacrificed by decapitation and the whole brain was immediately isolated. After removal of the cerebellum and the medulla oblongata, the wet weight of the cerebrum was measured. The cerebrum was then dried at 105° C. for 24 hours and the dry weight was measured. The cerebral water content was calculated by using the following formula: […]
# Data are expressed as the mean±standard error (S.E.). […]
# [4] = test system: Wistar or SD rats; test: Single dose toxicity study (Example 8); type: in vivo, Wistar or SD rats of both sexes; conditions: 2000 mg/kg, oral or intravenous
# Protocol: (1) BHBNa was orally or intravenously administered to Wistar or SD rats of both sexes at a single dose of 2000 mg/kg.
# [5] = test system: Wistar or SD rats; test: 2-week repeated dose toxicity study (Example 8); type: in vivo, male Wistar or SD rats; conditions: 500 mg/kg-2000 mg/kg, oral or intravenous, 2 weeks
# From the text: (2) BHBNa was repeatedly administered orally or intravenously to male Wistar or SD rats for 2 weeks.
# [6] = test system: cerebral ischemia model (BLCL); test: Cerebral ATP and lactate levels in rats with BLCL (Example 6); type: in vivo, male Wistar rats
# From the text: as §1
# For test drug administration, the right external jugular vein was cannulated and the other end of the cannula was led out through the back of the animal. Then the common carotid artery was ligated at two points (head side and heart side) and severed between the two ligatures.
# The level of significance was set at p<0.05.
# [7] = test system: middle cerebral artery occlusion/reperfusion model; test: Cerebral infarction reducing effect: middle cerebral artery occlusion/reperfusion model (Example 7); type: in vivo, male Wistar rats
# Protocol: Male Wistar rats aged 8 weeks (Charles River Japan, Inc.) were used in the study. […] They were fed a pellet diet (MF, Oriental Yeast Co., Ltd.) and tap water ad libitum.
# Exactly 0.2 g of BHBNa was weighed and dissolved in distilled water for injection to make up a final volume of 10 ml. To 9 ml of this solution, physiological saline was added to make up 30 ml.
# Under ether anesthesia, a midline incision was made in the neck. The incision reached the right carotid bifurcation while avoiding injury to the vagus nerve. Around the bifurcation, the common carotid artery and the external carotid artery were separated from surrounding connective tissue and adipose tissue. […] The external carotid artery was then double ligated with 5-0 silk and cut In addition, the right internal carotid artery was dissected out from the surrounding connective tissue to expose the pterygopalatine artery. The external carotid artery was incised, and an embolizing thread was inserted via this incision to a distance of 21 mm into the internal carotid artery. The tip of the thread went beyond the origin of the middle cerebral artery and entered the anterior cerebral artery by about 1-2 mm, so that the middle cerebral artery was occluded by the central portion of the thread.
# In sham-operated rats, the skin incision was closed without inserting any embolizing thread into the internal carotid artery. The rats were then maintained until the scheduled time of sacrifice.
# After the middle cerebral artery was occluded with an embolizing thread for 2 hours, the thread was removed under ether anesthesia to allow reperfusion.
# Immediately after insertion of the embolizing thread, the rats were given a continuous infusion of physiological saline or 0.6% BHBNa solution via a cannula inserted into a femoral vein on the previous day. Administration was performed at a rate of 5 ml/kg/hr using an infusion pump and was continued until the scheduled time of sacrifice (24 hours after reperfusion).
# Each rat was sacrificed at 24 hours after reperfusion. The cerebrum was isolated, and cut into 2 mm coronal sections by using a Brain Slicer (MUROMACHI KIKAI Co., Ltd.) from a point 7 mm behind the edge of the forebrain to the interauricular line (telencephalon). The brain sections were stained to detect normal mitochondria by total immersion for 30 min in a 2% solution of 2,3,5-triphenyltetrazolium chloride (TTC) in physiological saline. […]
# Photographs of the TTC-stained coronal sections of the cerebrum were scanned by using an film scanner and the data were processed with image analyzing software (NIH Image). The percent infarcted area (mitochondria death) on each cerebral section was calculated from the total area of the unstained regions relative to the entire area of the section.
# [8] = test system: KCN-induced death; type: in vivo, male Wistar rats; conditions: for survival time after KCN: KCN 3 mg/kg, mean ± S.E.
# [9] = test system: normal rats without BLCL; test: Cerebral ATP and lactate levels in normal rats without BLCL (Example 6); type: in vivo, male Wistar rats; conditions: continuous infusion for 3 hours
# Protocol: Male Wistar rats (Japan S.L.C., Ltd.) were used in the study. The animals were maintained at 23±3° C. and 55±15% humidity with lights on for 12 hours daily (from 7:00 to 19:00). They were fed a pellet diet (MF, Oriental Yeast Co., Ltd.) and tap water ad libitum. Their weight ranged from 161.7 to 249.0 g at the time of the study.
# Exactly 0.2 g of BHBNa was weighed and dissolved in distilled water for injection to make a final volume of 10 ml. To 9 ml of this solution, physiological saline was added to make up 30 ml. The 0.6% BHBNa solution thus obtained was sterilized by filtration through DISMIC-25CS ([…], ADVANTEC Toyo) prior to use.
# After 3 hours of cerebral ischemia, the head of each rat was irradiated with microwaves (5 kW) for 2 seconds using a microwave applicator (TMW6402C, Toshiba) to terminate all enzyme reactions and the production/degradation of metabolites in the brain tissue. […] The weight of the cerebrum was calculated from the difference of the weight of the test tube measured as above.
# The cerebral ATP level was determined by an enzymatic method (the luciferin-luciferase method) by using Lumat LB9507 (EG&G BERTHOLD). The data obtained were expressed as μmoles/wet weight g.
# The cerebral lactate level was determined by an enzymatic method (lactate dehydrogenase method) by using Determiner LA (Kyowa Medics). The data obtained were expressed as μmoles/wet weight g. […]
# [10] = cited from earlier work
# [11] = test system: acute cerebral injury; conditions: intravenous, after acute cerebral injury; cited from earlier work
structure (smiles),measurement,setting,value
CC(O)CC(=O)[O-].[Na+] (stereo not drawn),stability of prepared solution,[1],at least 1 week
same,stability on storage,[1],5 months
same,changes in quality of the lot used in the study,[1]; tested after completion of the study,no changes in quality
same,relation of cerebral water content to dose,"[2]; FIG. 1, i.v. infusion for 5 hours",related to the dose
same,statistical significance of lower cerebral water content vs. physiological saline group,"[2]; by dose, i.v. infusion 10 ml/kg/hr for 5 hours",statistically significant (p<0.01) at doses of 5 mM or more
same,cerebral water content vs. physiological saline group,"[2]; sodium β-hydroxybutyrate 3.1-400 mg/kg/hr (2.5-320 mM, 10 ml/kg/hr) i.v. infusion for 5 hours, FIG. 1",lower than in the physiological saline group
same,Cerebral water content,[3]; P < 0.01 vs. physiological saline (81.96 ± 0.21),79.50 ± 0.09%
same,Na^+ content,"[3]; cerebral, P < 0.01 vs. physiological saline (304.39 ± 12.83)",269.74 ± 15.98 mEq/kg dry weight
same,K^+ content,"[3]; cerebral, physiological saline 405.99 ± 20.96, not significantly different",420.42 ± 5.76 mEq/kg dry weight
same,single dose toxicity,[4],survived without any abnormal findings
same,repeated dose toxicity,[5],survived without any abnormal findings
same,cerebral ATP level,"[6]; 3 hours of BLCL, BHBNa 30 mg/kg/hr, mean±S.E., saline 0.52±0.10, sham 1.85±0.13",1.56±0.10 μmoles/wet weight g
same,cerebral lactate level,"[6]; 3 hours of BLCL, BHBNa 30 mg/kg/hr, mean±S.E., saline 11.39±0.85, sham 0.61±0.12",1.36±0.17 μmoles/wet weight g
same,localization of infarct foci,[7]; 30 mg/kg/hr continuous infusion,Most infarct foci were localized in the central ischemic zone and few extended to the surrounding regions
same,Infarction %,"[7]; 30 mg/kg/hr i.v. infusion from arterial occlusion (2 hours) to 24 hours after reperfusion, n = 4, saline 35.18±2.69%, listed as BHBNa",18.99% and 18.99 ±1.59%
same,survival time after KCN,"[8]; 50 mg/kg/hr for 1 hour i.v., saline 44.6±1.6 sec, FIG. 2",58.8 ± 2.4 s
same,survival time after KCN,"[8]; 100 mg/kg/hr for 1 hour i.v. (duration comparison), FIG. 3",58.2 ± 2.2 s
same,survival time after KCN,"[8]; 100 mg/kg/hr for 1 hour i.v., saline 44.6±1.6 sec, FIG. 2",58.8 ± 1.2 s
same,survival time after KCN,"[8]; 100 mg/kg/hr for 3 hours i.v., FIG. 3",61.0 ± 1.6 s
same,cerebral ATP level in normal rats,[9],no significant effect
same,cerebral lactate level in normal rats,[9],no significant effect
COC(=O)CC(C)O (stereo not drawn) [methyl β-hydroxybutyrate],cerebral water content vs. physiological saline-treated group,"[2]; parenteral solution with methyl β-hydroxybutyrate 2.42 g/l, NaCl, KCl, glucose",lower than in the physiological saline-treated group
CC(O)CC(=O)O (stereo not drawn) [β-hydroxybutyric acid],water solubility,[10],water-soluble
same,increase in cerebral water content induced by BLCL for 6 hours,[2]; at the doses tested in Example 4 (50 and 100 mg/kg/hr),significantly suppressed
same,development of cerebral edema (summary),"[2]; simultaneous intravenous administration, ligation of bilateral common carotid arteries",prevented the development of cerebral edema
same,cerebral ATP levels (summary),[6]; ligation of bilateral common carotid arteries,high cerebral ATP levels were maintained
same,ketone level in the cerebrospinal fluid,[11],increased
same,lactate level in the cerebrospinal fluid,[11],decreased
same,extent of cerebral infarction (summary),[7]; administration during ligation of the middle cerebral artery and subsequent reperfusion,markedly reduced
same,survival time after lethal KCN (summary),[8]; intravenous pretreatment,prolonged the survival time
